Three molecules from patent US20210253550A1, “THERAPEUTIC COMPOUNDS AND COMPOSITIONS” (eXIthera Pharmaceuticals, Inc., priority 2018, published 2021) can be followed below.

As usually defined, the solubility is the dissolved amount per volume that the medium holds.

In data set [1] the test system is blood coagulation components. Format: in vivo. The procedure: The following parameters and endpoints were evaluated in this study: mortality, body weight, physical, clinical pathology parameters (hematology and coagulation), coagulation time, and bioanalytical parameters.
The vehicle and test article were administered via intravenous (IV) infusion once on Day 1 for 135 minutes (initiated 30 minutes prior to starting the Cardiopulmonary Bypass (CPB) and continuing for 105 minutes of CPB). Group 2 animals received a […] IV bolus dose immediately prior to the start of IV infusion. Group 3, 4, and 5 animals received a 10 mg/kg IV bolus dose prior to the start of the IV infusion; with the CPB machine primed with test article at 10 μg/mL.
Infusion of the Compound 1 was started 30 minutes prior to the animal being placed on the CPB pump. The CPB pump was primed with 0.9% saline.
Venous and arterial sheaths were flushed with the Compound 1 at a concentration of 10 μg/mL. An IV bolus dose of the test article was administered immediately prior to the start of the infusion. Infusion of Compound 1 was started 30 minutes prior to the animal being placed on the CPB pump. The CPB […] was primed with 10 μg/mL of the Compound 1 prior to initiation of the CPB pump.
An IV bolus dose of the Compound 1 was administered immediately prior to the start of the infusion. Infusion of Compound 1 was started 30 minutes prior to the animal being placed on the CPB pump.

Data set [2] in a line: Dynamic Vapor Sorption (DVS) with XRPD before and after. Format: physicochemical. The procedure: Samples were analyzed using an Aquadyne DVS-2 gravimetric water sorption analyzer. The relative humidity was adjusted between 2-95% and the weight of the sample was continuously monitored and recorded with respect to the relative humidity and time.
The same material was subjected under the Dynamic Vapor Sorption (DVS, FIGS. 3 and 4).
The purity of the sample was also verified by ^1H-NMR. […] The amorphous salt was also studied by DVS. During Desorption 1, (from 50 to 0% RH), a weight loss of around 3% was observed whilst, during Sorption 1 (from 0 to 95% RH), a weight gain of 10%. Desorption 2 indicates a weight loss of 3% was observed and during Sorption 2 (from 0 to 95% RH) the weight loss was continued to additional 1%. In the final stage, Desorption 3 (from 95 to 50% RH), around 1% weight loss was observed (see FIG. 17). The amorphous Compound 1.HCl was analyzed by XRPD and optical microscopy post-DVS experiment.

Data set [3] can be described thus: Solubility of Compound 1.HCl measured gravimetrically in solvents/solvent mixtures. In kind it is physicochemical. The note with it: thermodynamic from solid, slurried 48 h, gravimetric. The procedure:
Solubility of Compound 1.HCl was measured gravimetrically in 12 different solvents and solvent mixtures at 15 and 45° C. About 90 mg of the compound was dispensed in 1 mL of the solvent/solvent mixture and slurried for 48 h. The vials were centrifuged. The supernatant was collected and left for slow evaporation under vacuum at 45° C. The solids obtained after evaporation were used to determine the solubility of Compound 1.HCl and analyzed by XRPD for any new form. Table 1 represents the solubility of Compound 1.HCl in different solvents.

A short description of data set [4]: Relative stability of the forms: competitive slurries of Pattern A and amorphous form. In kind it is physicochemical. Conditions: Pattern A + amorphous form in TBME, IPA and THF:H2O (95:5), RT and 45° C.
Data set [5] can be described thus: Heating of amorphous salt at 140° C., XRPD and DSC. Format: physicochemical. Conditions: amorphous salt heated to 140° C. for 30 min (Sample D9). The procedure:
FIG. 18 illustrates the post-DVS XRPD comparison with the amorphous and Pattern A (original salt). The amorphous salt was heated to 140° C. for 30 min and characterized by XRPD and DSC (Sample ID: D9). […] The DSC thermogram in FIG. 21 also confirms the conversion of amorphous to crystalline (Pattern A) after heating the amorphous sample at 140° C.

Setting [6] is: amorphous salt (Sample C1), from 0 to 95% RH.

As for `C[C@@H](NC(=O)N1C(=O)[C@H](Cc2ccnc(N)c2)[C@H]1C(=O)O)C1CCCCC1` [Compound 1, (2S,3R)-3-[(2-aminopyridin-4-yl)methyl]-1-{[(1R)-1-cyclohexylethyl]carbamoyl}-4-oxoazetidine-2-carboxylic acid], in data set [1] (dog, in vivo), the morbidity or mortality result is “not associated with any increases in morbidity or mortality” and the survival entry was “All animals survived to study termination”. Moreover, the “prevention of activation of blood coagulation in components of cardiopulmonary bypass” value in data set [1] (hound CPB model, 105-minute CPB run) is on record as “successful in preventing the activation of blood coagulation in components of cardiopulmonary bypass”. The “pressure gradient across the membrane oxygenator” value in data set [1] (hound CPB model, IV infusion at multiple doses, entire pump run) is recorded as “stayed consistent through the entire run”. Also, the “selectivity of anticoagulant effects” value in data set [1] (hound CPB model, coagulation parameters) is “selective to inhibition of activated partial thromboplastin time (aPTT)”. In addition, the “aPTT during Compound 1 infusion and prior to CPB” value in data set [1] (hound, all animals, IV infusion 3 or 10 mg/kg/hr) is “moderately to markedly prolonged”. Also, the “aPTT following cessation of infusion and CPB, at the conclusion of the study” value in data set [1] (hound, all groups) is “remained moderately prolonged”.
In the case of `C[C@@H](NC(=O)N1C(=O)[C@H](Cc2ccnc(N)c2)[C@H]1C(=O)O)C1CCCCC1.Cl` [Compound 1.HCl], the “crystalline pattern by XRPD after DVS” value in data set [2] (crystalline Pattern A, after DVS) was “did not change”. Further, in data set [2] (crystalline Pattern A, relative humidity levels between 0-95%), the “moisture uptake (DVS)” value is listed as “about 4%”. Besides, the solubility at 48 h in data set [3] (aqueous with cosolvent or surfactant or cyclodextrin, MeOH:H2O (1:1), 15° C.) was over 100000 µg/mL; in data set [3] (aqueous with cosolvent or surfactant or cyclodextrin, MeOH:H2O (1:1), 45° C.) it was over 100000 µg/mL; in data set [3] (organic solvent or mixture, Acetone, 15° C.), 2200 µg/mL; in data set [3] (organic solvent or mixture, Acetone, 45° C.) it was 4800 µg/mL; in data set [3] (organic solvent or mixture, EtOAc, 15° C.), 200 µg/mL; in data set [3] (organic solvent or mixture, EtOAc, 45° C.) it was 2100 µg/mL. Besides, the solubility at 48 h is over 100000 µg/mL in data set [3] (organic solvent or mixture, EtOH:H2O (95:5), 15° C.); over 100000 µg/mL in data set [3] (organic solvent or mixture, EtOH:H2O (95:5), 45° C.); under 1000 µg/mL in data set [3] (organic solvent or mixture, Heptane, 15° C.); 2100 µg/mL in data set [3] (organic solvent or mixture, Heptane, 45° C.); 17000 µg/mL in data set [3] (organic solvent or mixture, IPA, 15° C.); 43000 µg/mL in data set [3] (organic solvent or mixture, IPA, 45° C.). The solubility at 48 h was over 100000 µg/mL in data set [3] (organic solvent or mixture, IPA:H2O (9:1), 15° C.); over 100000 µg/mL in data set [3] (organic solvent or mixture, IPA:H2O (9:1), 45° C.); 700 µg/mL in data set [3] (organic solvent or mixture, MeCN, 15° C.); 700 µg/mL in data set [3] (organic solvent or mixture, MeCN, 45° C.); over 100000 µg/mL in data set [3] (organic solvent or mixture, MeOH, 15° C.); over 100000 µg/mL in data set [3] (organic solvent or mixture, MeOH, 45° C.). Moreover, the solubility at 48 h in data set [3] (organic solvent or mixture, TBME, 15° C.) was 400 µg/mL; in data set [3] (organic solvent or mixture, TBME, 45° C.) it was 4100 µg/mL; in data set [3] (organic solvent or mixture, THF, 15° C.) it was 1200 µg/mL; in data set [3] (organic solvent or mixture, THF, 45° C.), 6700 µg/mL; in data set [3] (Water, 15° C.), over 100000 µg/mL; in data set [3] (Water, 45° C.) it was over 100000 µg/mL. Also, the “solid form by XRPD of competitive slurries after 24 h” value in data set [4] is given as “did not exhibit any change in the crystalline form (Pattern A)”. In addition, the “solid form by XRPD of competitive slurries at t=5 min” value in data set [4] is “transformed to Pattern A”.
Turning to `C[C@@H](NC(=O)N1C(=O)[C@H](Cc2ccnc(N)c2)[C@H]1C(=O)O)C1CCCCC1.Cl` [amorphous Compound 1.HCl], the “solid form by XRPD after heating” value in data set [5] is “transformation to Pattern A (crystalline salt)”. Also, the “weight loss, DVS Desorption 2” value in data set [2] (amorphous salt (Sample C1)) came to 3%. Further, the “solid form by XRPD post-DVS” value in data set [2] (amorphous salt (Sample C1), post-DVS experiment) is listed as “reverts back to crystalline salt (Pattern A)”. Moreover, in data set [2] (setting [6]), the “additional weight loss, DVS Sorption 2” value is recorded as 1% and the “weight gain, DVS Sorption 1” value is given as 10%. Further, the “weight loss, DVS Desorption 1” value in data set [2] (amorphous salt (Sample C1), from 50 to 0% RH) is recorded as “around 3%”. Besides, the “weight loss, DVS Desorption 3” value in data set [2] (amorphous salt (Sample C1), from 95 to 50% RH) is “around 1%”.
